The values below come from ChEMBL document CHEMBL1154736, “Increasing selectivity of CC chemokine receptor 8 antagonists by engineering nondesolvation related interactions with the intended and off-target binding sites” (J Med Chem, 2009).

Molecules are shown by their SMILES.

Data set [1] deals with C-C chemokine receptor type 8 (Homo sapiens, UniProt P51685). The data set is described as follows: Antagonist activity at human CCR8. The class given is functional.
The target in data set [2] is Voltage-gated inwardly rectifying potassium channel KCNH2 (Homo sapiens, UniProt Q12809, F656T). The data set is described as follows: Inhibition of human recombinant ERG F656T mutant expressed in CHOK1 cells by whole-cell plate-based electrophysiology. Conditions: cho-k1.
In data set [3] the target is Voltage-gated inwardly rectifying potassium channel KCNH2 (Homo sapiens, UniProt Q12809, S624A). The data set is described as follows: Inhibition of human recombinant ERG S624A mutant expressed in CHOK1 cells by whole-cell plate-based electrophysiology. The following applies: cho-k1.
Data set [4] addresses T1, Voltage-gated inwardly rectifying potassium channel KCNH2 (Homo sapiens, UniProt Q12809). The data set is described as follows: Displacement of [3H]dofetilide from human recombinant ERG expressed in HEK293 cells by patch clamp method.
In data set [5] the target is Voltage-gated inwardly rectifying potassium channel KCNH2 (Homo sapiens, UniProt Q12809, T623S). The data set is described as follows: Inhibition of human recombinant ERG T623S mutant expressed in CHOK1 cells by whole-cell plate-based electrophysiology. Conditions: cho-k1.
Data set [6] deals with Voltage-gated inwardly rectifying potassium channel KCNH2 (Homo sapiens, UniProt Q12809, Y652F). The data set is described as follows: Inhibition of human recombinant ERG Y652F mutant expressed in CHOK1 cells by whole-cell plate-based electrophysiology. Conditions: cho-k1.
In data set [7] the target is T1, Voltage-gated inwardly rectifying potassium channel KCNH2. The data set is described as follows: Inhibition of wild type human ERG expressed in CHOK1 cells by whole-cell plate-based electrophysiology.
In data set [8] the target is Voltage-gated inwardly rectifying potassium channel KCNH2 (Homo sapiens, UniProt Q12809, F656M). The data set is described as follows: Inhibition of human recombinant ERG F656M mutant expressed in CHOK1 cells by whole-cell plate-based electrophysiology. The following applies: cho-k1.
The target of data set [9] is Voltage-gated inwardly rectifying potassium channel KCNH2 (Homo sapiens, UniProt Q12809, Y652A). The data set is described as follows: Inhibition of human recombinant ERG Y652A mutant expressed in CHOK1 cells by whole-cell plate-based electrophysiology. Conditions: cho-k1.
For data set [10], the target named is Voltage-gated inwardly rectifying potassium channel KCNH2 (Homo sapiens, UniProt Q12809, F656W). The data set is described as follows: Inhibition of human recombinant ERG F656W mutant expressed in CHOK1 cells by whole-cell plate-based electrophysiology. The following applies: cho-k1.
For data set [11], the target named is Voltage-gated inwardly rectifying potassium channel KCNH2 (Homo sapiens, UniProt Q12809, S624T). The data set is described as follows: Inhibition of human recombinant ERG S624T mutant expressed in CHOK1 cells by whole-cell plate-based electrophysiology. The following applies: cho-k1.
Data set [12] can be described thus: Apparent n-Octanol-water partition coefficient, log D at pH 7.4 by HPLC analysis.

Sequence of C-C chemokine receptor type 8 (P51685 whole entry): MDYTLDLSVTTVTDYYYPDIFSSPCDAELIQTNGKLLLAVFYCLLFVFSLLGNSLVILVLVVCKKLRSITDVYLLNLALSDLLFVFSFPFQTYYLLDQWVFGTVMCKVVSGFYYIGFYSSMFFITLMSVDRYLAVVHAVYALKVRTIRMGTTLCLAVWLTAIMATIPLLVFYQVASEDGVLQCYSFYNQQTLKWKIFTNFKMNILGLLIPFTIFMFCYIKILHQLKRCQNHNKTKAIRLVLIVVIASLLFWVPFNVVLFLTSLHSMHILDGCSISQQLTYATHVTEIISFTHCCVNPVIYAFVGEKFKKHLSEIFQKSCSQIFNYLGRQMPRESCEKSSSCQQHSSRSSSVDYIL

Consider `COc1ccccc1Oc1ccccc1CN1CCC2(CC1)CCN(C(=O)c1ccncc1)CC2`, for which the concentration for half-maximal inhibition (IC50) in [1] was 11.5 nM.

`CC1(C)Cc2cccc(CN3CCC4(CC3)CCN(C(=O)c3ncccc3N)CC4)c2O1`: the “delta pIC50 wt-mutant” value was 0.77 in [2]; 1.32 in [3]; 0.41 in data set [5]; 0.64 in [6]; -0.26 in [8]; 1.81 in data set [9]. The “delta pIC50 wt-mutant” value in data set [10] is on record as -0.32; in data set [11], 0.43. Besides, the IC50 in data set [4] was 32400 nM; in [7], 4170 nM; in data set [1], 22.4 nM. The logD in [12] was 1.4.

On to `C=C(C)COc1ccccc1CN1CCC2(CC1)CCN(C(=O)c1ccncc1)CC2`, for which the logD in data set [12] is 1.6. In data set [1], the half-inhibitory concentration (IC50) is 70.8 nM.

As for `O=C(c1ccncn1)N1CCC2(CCN(Cc3ccccc3Oc3ccccc3)CC2)CC1`, in [12], the logD amounted to 2. Besides, the midpoint of inhibition in data set [1], the IC50, lay at 141 nM.

For `CC1(C)CCc2cc(CN3CCC4(CC3)CCN(C(=O)c3ccc(N)cn3)CC4)ccc2O1`, the “delta pIC50 wt-mutant” value in data set [2] is -0.09; in data set [3], 1.09; in [5], 0.24; in data set [6], 0.47; in data set [8], -0.66; in [9], 0.83. In addition, the “delta pIC50 wt-mutant” value in data set [10] is recorded as -0.35; in [11], -0.28. For the same compound, the figures for the 50% inhibitory concentration (IC50) in [4], in data set [7] and in data set [1] were 32400 nM, 19500 nM and 95.5 nM, respectively. Also, in data set [12], the log distribution coefficient (logD) came out at 1.1.

Consider `CCCC1(CC)Cc2c(CN3CCC4(CC3)CCN(C(=O)c3ccc(N)cn3)CC4)cccc2O1` (stereo not given), for which the logD in data set [12] amounted to 2.5. Also, the IC50 in [1] was 2.4 nM.

Take `CC(C)COc1ccccc1CN1CCC2(CC1)CCN(C(=O)c1ccncc1)CC2`: the pH-dependent lipophilicity (logD) in data set [12] is 1.8. Moreover, the IC50 in data set [1] is 107 nM.

For the compound `CC(C)COc1ccccc1CN1CCC2(CC1)CCN(C(=O)c1ccncn1)CC2`, the “delta pIC50 wt-mutant” value is 1.65 in data set [2]; 0.51 in [3]; 0.22 in [5]; -0.42 in data set [6]; 0.21 in [8]; 0.7 in data set [9]. Also, the “delta pIC50 wt-mutant” value in data set [10] is on record as -0.42; in data set [11], 0.12. The IC50 is 19100 nM in [4], 4900 nM in data set [7] and 141 nM in data set [1]. Besides, in data set [12], the logD is -0.11.

Take `CC1(C)Cc2c(CN3CCC4(CC3)CCN(C(=O)c3ccnc(N)c3)CC4)cccc2O1`: the “delta pIC50 wt-mutant” value in [2] is given as 1.32; in data set [3] it was 0.55; in data set [5] it was 0.01; in [6], -0.37; in data set [8], 0.14; in data set [9], 0.89. For the same compound, the results for the “delta pIC50 wt-mutant” value in [10] and in [11] were -0.61 and -0.58, respectively. Further, the figures for the IC50 in data set [4], in [7] and in data set [1] were 17000 nM, 28800 nM and 22.4 nM, respectively. Also, the logD in [12] was 1.4.

Take `CC(C)(C)C1(C)Cc2c(CN3CCC4(CC3)CCN(C(=O)c3ccc(N)cn3)CC4)cccc2O1` (stereo not given): the logD in [12] was determined as 2.6. This compound showed an IC50 in data set [1] of 2.82 nM.

As for `CC1Cc2cccc(CN3CCC4(CC3)CCN(C(=O)c3ccncc3)CC4)c2O1` (stereo not given), the “delta pIC50 wt-mutant” value in [2] is 1.41; in data set [3], 0.61; in data set [5], 0.24; in data set [6] it was -0.21; in data set [8], 1.04; in [9], 1.63. Further, the “delta pIC50 wt-mutant” value in data set [10] was -0.58; in data set [11], -0.12.

Consider `CC1(C)CCc2cc(CN3CCC4(CC3)CCN(C(=O)c3ccncn3)CC4)ccc2O1`, for which the “delta pIC50 wt-mutant” value in data set [2] was 0.46; in [3] it was 0.74; in data set [5] it was 0.39; in data set [6], 0.11; in [8], -0.3; in data set [9], 0.82. The figures for the “delta pIC50 wt-mutant” value in data set [10] and in data set [11] were -0.14 and -0.39, respectively. Besides, the IC50 in data set [7] was 11200 nM; in [1], 1820 nM. In data set [12], the logD stood at 0.9.

In the case of `CC1(C)C=Cc2cccc(CN3CCC4(CC3)CCN(C(=O)c3ccnc(N)c3)CC4)c2O1`, the “delta pIC50 wt-mutant” value in data set [2] came to 1.32; in data set [3], 0.48; in data set [5], 0.2; in data set [6], 0.04; in data set [8], 0.37; in data set [9] it was 0.93. The “delta pIC50 wt-mutant” value is listed as -0.75 in data set [10] and -0.62 in data set [11]. The logD in [12] stood at 1.5. In [1], inhibition was half-maximal at 5.62 nM (IC50).

Regarding `CC1(C)Cc2cccc(CN3CCC4(CC3)CCN(C(=O)c3ccc(N)cn3)CC4)c2O1`, the “delta pIC50 wt-mutant” value in data set [2] was 0.51; in [3], 0.82; in data set [5], 0.22; in data set [6], 0.35; in data set [8], -0.31; in [9], 0.83. Further, the “delta pIC50 wt-mutant” value is reported as -0.99 in [10] and -0.05 in data set [11]. The IC50 in [4] is 37200 nM; in [7], 43700 nM; in data set [1] it was 2.63 nM. Moreover, the pH-dependent lipophilicity (logD) in data set [12] worked out at 1.

Take `O=C(c1ccncc1)N1CCC2(CCN(Cc3cccc4c3OCC4)CC2)CC1`: in data set [12], the logD came out at 0.3. In [1], this compound gave an IC50 of 1480 nM.

On to `COc1ccccc1Oc1ccccc1CN1CCC2(CC1)CCN(C(=O)c1ccncn1)CC2`, for which the logD in data set [12] came out at 1.2. Besides, in data set [1], inhibition was half-maximal at 14.8 nM (IC50).

Regarding `COc1ccccc1Oc1cccc(CN2CCC3(CC2)CCN(C(=O)c2ccncn2)CC3)c1`, the “delta pIC50 wt-mutant” value in [2] is given as 0.58; in [3], 0.67; in data set [5] it was 0.44; in data set [6], -0.29; in data set [8], -0.2; in data set [9] it was 0.98. Further, the figures for the “delta pIC50 wt-mutant” value in data set [10] and in data set [11] were -0.15 and -0.3, respectively. In addition, the IC50 was 1910 nM in data set [7] and 4.9 nM in [1]. Further, the logD in data set [12] was determined as 1.7.

Regarding `O=C(c1ccncc1)N1CCC2(CCN(Cc3ccccc3OC(F)(F)C(F)F)CC2)CC1`, the “delta pIC50 wt-mutant” value in data set [2] is recorded as 1.42; in data set [3], 0.11; in data set [5] it was 0.06; in data set [6] it was -0.32; in [8], 0.48; in [9] it was 1. Besides, the “delta pIC50 wt-mutant” value is reported as -0.54 in [10] and -0.08 in data set [11]. The IC50 in [4] was 17000 nM; in data set [7] it was 5130 nM; in data set [1], 525 nM. Besides, the pH-dependent lipophilicity (logD) in data set [12] was 2.8.

Take `CC1(C)Cc2c(CN3CCC4(CC3)CCN(C(=O)c3ccncc3)CC4)cccc2O1`: the figures for the IC50 in data set [4], in [7] and in data set [1] were 30200 nM, 7080 nM and 30.9 nM, respectively. Moreover, the log distribution coefficient (logD) in data set [12] was found to be 1.6.

Consider `COc1ccccc1Oc1ccccc1CN1CCC2(CC1)CCN(C(=O)c1ccc[nH]c1=O)CC2`, for which the “delta pIC50 wt-mutant” value in data set [2] is listed as 1.92; in data set [3] it was 0.54; in data set [5] it was 0.51; in data set [6], 0.35; in data set [8], 0.22; in data set [9] it was 1.19. The “delta pIC50 wt-mutant” value in [10] is on record as -0.18; in data set [11] it was 0.24. For the same compound, the concentration for half-maximal inhibition (IC50) in data set [4] was 2000 nM; in data set [7] it was 14100 nM; in [1], 55 nM. Besides, in data set [12], the logD was found to be 0.9.

With `CC1(C)Oc2cccc(CN3CCC4(CC3)CCN(C(=O)c3ccnc(N)c3)CC4)c2O1`, the “delta pIC50 wt-mutant” value is 1.37 in data set [2]; 0.59 in [3]; -0.06 in data set [5]; -0.19 in [6]; 0.62 in data set [8]; 1.22 in [9]. Besides, the “delta pIC50 wt-mutant” value is recorded as -0.39 in data set [10] and -0.33 in data set [11]. Moreover, the results for the IC50 in data set [4], in data set [7] and in data set [1] were 759 nM, 16600 nM and 6.61 nM, respectively. Moreover, in data set [12], the pH-dependent lipophilicity (logD) was found to be 1.2.
